Experimental data taken from patent publication US10544100B2, “Autophagy inhibitors” (priority 2011, dated 2020).

Legend:
[1] = tested on: lysosome in U2OS cells; assay: Inhibitory lysosomal mechanism of action (LysoTracker Red and LAMP1 staining); type: cell-based; conditions: for LAMP1 staining / LysoTracker Red staining: at 304 for 3 hours; for LysoTracker Red staining: LysoTracker Red for the final hour; for intensity of LysoTracker Red staining (image analysis, line scan): indicating an increase in pH
Experimental: To determine deacidification of the lysosome, cells were incubated with LysoTracker Red, a dye that localizes to the lysosome based on the low acidity of the compartment. If the lysosome is no longer acidic, there is a loss in the amount of LysoTracker Red staining. Lysosomal inhibition was further determined by immunofluorescence of lysosome-associated membrane protein-1 (LAMP1). If the lysosome is inhibited, lysosomal turnover should decrease and an increase in the amount of LAMP1 staining would be apparent. U2OS cells were treated with Example 7 or Example 26 at […] for 3 hours, supplementing LysoTracker Red for the final hour.
Using image analysis software, the mean intensities of both the LAMP1 and LysoTracker Red staining were measured and represent altered intensity level between treatments on intensity plots. Individual points were measured using a line scan on the image analysis software, which measures the intensity across the path of a line at any given point. Not only does the presence of LAMP1 positive membranes increases, but the intensity in LAMP1 staining also increases with Example 7 and Example 26 treatment. The inverse relationship in intensity holds true for LysoTracker Red staining.

[2] = tested on: Tumor cell lines (H292, HCT116, A375, HCC1569, A498, N87, UACC1093, and UACC647); assay: Single agent tumor cell viability (ATP luminescence), 72 hours; type: cell-based; conditions: in the cell lines tested (FIGS. 1A, 1B, and C)
Experimental: (§1) Tumor cell lines (H292, HCT116, A375, HCC1569, A498, N87, UACC1093, and UACC647) were cultured in RPMI 1640 supplemented with 5% fetal bovine serum and housed in a 5% CO2 Incubator at 37° C.
(§2) For single agent IC50 determination, cells were plated on a 96 well microplate and allowed 24 hours to adhere. Drugs were administered to the drug plate by the following: compound stock solutions (10 mM) were added to a drug plate where a 1:10 dilution was performed. Following the dilutions, 2 μl of test compound was transferred to the corresponding wells in the cell-containing 96-well plate with 198 μl of growth media. The compounds were tested over a range of 0.1 pM-100 μM for 72 hours. Following 72 hours of continuous exposure cell viability was determined by measuring the ATP activity using a commercially available cell viability assay kit. Luminescence intensity was used to relative drug activity compared to control wells and used to graphically determine the IC50.

[3] = tested on: A375 Human melanoma tumor cells; assay: Human tumor xenograft study; type: in vivo; conditions: A375 xenograft in female mice, oral, daily for 21 days; after 25 days
Experimental: Female mice were inoculated subcutaneously in the right flank with 0.1 ml of a 50% RPMI/50% Matrigel™ (BD Biosciences, Bedford, Mass.) mixture containing a suspension of A375 Human melanoma tumor cells (approximately 5×10^6 cells/mouse).
When tumor reached approximately 130 mg, mice were randomized into treatment groups. Body weights were recorded when the mice were randomized and were taken twice per week (on Study Days 3 and 7 for each cycle) thereafter in conjunction with tumor measurements. Treatment began on the day of randomization. Example 10 was delivered orally in a vehicle consisting of 5% DMA, 10% propylene glycol, 20% PEG 400, and 65% sterile water. Example 10 was administered daily for 21 days.

[4] = tested on: PLX-4032 resistant melanoma cell lines UACC1093 and UACC647; assay: Combination interaction tumor cell viability (ATP luminescence), 72 hours; type: cell-based
Experimental: as §1
as §2, with “combination interaction experiments,” for “single agent IC50 determination,”, “(20 mM) or combination agent stock solutions (20” for “(10”, “each VT-062 and standard agent” for “test compound”, “196” for “198”, “compound and combination agent was concurrently” for “compounds were”, “IC50 of combination.” for “IC50.”

| Compound | intensity in LAMP1 staining (image analysis, line scan) [1] | LAMP1 staining [1] | LysoTracker Red staining [1] | intensity of LysoTracker Red staining (image analysis, line scan) [1] | tumor cell growth inhibition [2] | tumor growth inhibition (tumor weight) [3] | increase in tumor growth inhibition in combination than Example 10 alone ([4]; in combination with PLX-4032, UACC1093 and UACC647 (FIGS. 4A and 4C)) | increase in tumor growth inhibition in combination than Example 10 alone ([4]; in combination with Temozelomide, UACC1093 and UACC647 (FIGS. 4B and 4D)) |
| --- | --- | --- | --- | --- | --- | --- | --- | --- |
| COc1ccc2nc3cc(Cl)ccc3c(NCCCCN3CCN(C)CC3)c2c1 [Example 7, 6-Chloro-2-methoxy-N-(4-(4-methylpiperazin-1-yl)butyl)acridin-9-amine] | increases | substantial increases in LAMP1 staining | essentially ablated LysoTracker Red staining | less intense LysoTracker Red staining |  |  |  |  |
| COc1ccc2nc3cc(Cl)ccc3c(NCCCCN(C)CC3CC3)c2c1 [Example 10, N^1-(6-Chloro-2-methoxyacridin-9-yl)-N^4-(cyclopropylmethyl)-N^4-methylbutane-1,4-diamine] |  |  |  |  | more than 75% | greater than 50% | 2.6-3.25% | 7-30% |
| CCN1CCC(Nc2c3c(nc4cc(Cl)ccc24)CCCC3)CC1 [Example 26, 6-Chloro-N-(1-ethylpiperidin-4-yl)-1,2,3,4-tetrahydroacridin-9-amine] | increases | substantial increases in LAMP1 staining | essentially ablated LysoTracker Red staining | less intense LysoTracker Red staining |  |  |  |  |
